How the values were obtained:
[1] = test system: Caco-2/HT29-MTX cocultures
[2] = test system: HT29-MTX monolayers; settings: pH 7.4

Lucifer yellow [LY]
Papp, effect of adding HT29-MTX to Caco-2 cells [1]: drastically increases the Papp
Papp [2]: 2-3 10^−6 cm/s
